Columns and labels:
[1] = system: NCI-H1993; assay: Cytotoxicity against human NCI-H1993 cells assessed as growth inhibition after 72 hrs by CCK-8 assay; settings: NCI-H1993, 72 h
[2] = target: Platelet-derived growth factor receptor alpha (Homo sapiens, UniProt P16234); assay: Inhibition of human PDGFRalpha
[3] = target: Epidermal growth factor receptor (Homo sapiens, UniProt P00533); assay: Inhibition of human EGFR
[4] = Efflux ratio of permeability from basolateral to apical side over apical to basolateral side in Caco2 cells at 1 to 10 uM incubated for 90 mins by LC-MS/MS analysis; format: ADME, cell-based; settings: human, Caco-2
[5] = target: Hepatocyte growth factor receptor (Homo sapiens, UniProt P08581)
Description: Inhibition of c-Met kinase (unknown origin) assessed as decrease in phosphorylation of TK substrate-biotin peptide preincubated for 5 to 10 mins followed by ATP addition measured after 30 mins by HTRF assay

[6] = Intrinsic clearance in rat liver microsomes assessed per mg of protein at 1 uM preincubated for 5 mins followed by NADPH addition measured after 5 to 30 mins by LC-MS/MS analysis; format: ADME, Microsome; settings: read-out: CLH
[7] = target: Vascular endothelial growth factor receptor 2 (Homo sapiens, UniProt P35968); assay: Inhibition of human VEGFR2
[8] = target: Ephrin type-B receptor 2 (Homo sapiens, UniProt P29323); assay: Inhibition of human EPHB2
[9] = target: Platelet-derived growth factor receptor beta (Homo sapiens, UniProt P09619); assay: Inhibition of human PDGFRbeta
[10] = Apparent permeability from basolateral to apical side in Caco2 cells at 1 to 10 uM incubated for 90 mins by LC-MS/MS analysis; format: ADME, cell-based; settings: human, Caco-2
[11] = target: Receptor tyrosine-protein kinase erbB-4 (Homo sapiens, UniProt Q15303); assay: Inhibition of human ERBB4
[12] = target: Tyrosine-protein kinase ABL1 (Homo sapiens, UniProt P00519); assay: Inhibition of human ABL
[13] = Intrinsic clearance in human liver microsomes assessed per mg of protein at 1 uM preincubated for 5 mins followed by NADPH addition measured after 5 to 30 mins by LC-MS/MS analysis; format: ADME, Microsome; settings: read-out: CLH
[14] = target: Cytochrome P450 3A4 (Homo sapiens, UniProt P08684); assay: Time-dependent inhibition of CYP3A4 in human liver microsomes at 10 uM using troleandomycin as […] preincubated with compound followed by NADPH addition by LC-MS/MS analysis; format: ADME
[15] = in vitro; settings: human, Caco-2
Description: Apparent permeability from apical to basolateral side in Caco2 cells at 1 to 10 uM incubated for 90 mins by LC-MS/MS analysis

[16] = target: T1, Cytochrome P450 1A2 (Homo sapiens, UniProt P05177); assay: Time-dependent inhibition of CYP1A2 in human liver microsomes at 10 uM using furafylline as […] preincubated with compound followed by NADPH addition by LC-MS/MS analysis; format: ADME
T1 sequence (P05177 whole entry): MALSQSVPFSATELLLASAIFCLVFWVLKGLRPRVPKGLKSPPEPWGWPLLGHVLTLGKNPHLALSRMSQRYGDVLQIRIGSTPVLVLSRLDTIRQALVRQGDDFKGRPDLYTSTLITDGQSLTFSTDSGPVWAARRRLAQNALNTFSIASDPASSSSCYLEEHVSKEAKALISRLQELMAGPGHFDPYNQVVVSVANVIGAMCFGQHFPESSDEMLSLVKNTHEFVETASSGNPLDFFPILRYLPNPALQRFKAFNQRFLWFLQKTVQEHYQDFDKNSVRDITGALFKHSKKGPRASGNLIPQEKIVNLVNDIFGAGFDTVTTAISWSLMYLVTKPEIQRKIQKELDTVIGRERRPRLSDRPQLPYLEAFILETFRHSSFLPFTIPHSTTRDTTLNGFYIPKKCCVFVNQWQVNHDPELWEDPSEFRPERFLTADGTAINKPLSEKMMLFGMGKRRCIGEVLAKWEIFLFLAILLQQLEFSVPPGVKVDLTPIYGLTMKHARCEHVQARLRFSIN

[17] = target: Macrophage-stimulating protein receptor (Homo sapiens, UniProt Q04912); assay: Inhibition of human RON
[18] = target: Vascular endothelial growth factor receptor 1 (Homo sapiens, UniProt P17948); assay: Inhibition of human FLT1
[19] = target: Proto-oncogene tyrosine-protein kinase receptor Ret (Homo sapiens, UniProt P07949); assay: Inhibition of human RET
[20] = target: Fibroblast growth factor receptor 1 (Homo sapiens, UniProt P11362); assay: Inhibition of human FGFR1
[21] = target: Ephrin type-A receptor 2 (Homo sapiens, UniProt P29317); assay: Inhibition of human EPHA2
[22] = target: Mast/stem cell growth factor receptor Kit (Homo sapiens, UniProt P10721); assay: Inhibition of human c-Kit
[23] = target: Epidermal growth factor receptor (Homo sapiens, UniProt P00533, T790M); assay: Inhibition of human EGFR T790M mutant
[24] = target: Cytochrome P450 2D6 (Homo sapiens, UniProt P10635); assay: Time-dependent inhibition of CYP2D6 in human liver microsomes at 10 uM using paroxetine as […] preincubated with compound followed by NADPH addition by LC-MS/MS analysis; format: ADME
[25] = target: Cytochrome P450 2C9 (Homo sapiens, UniProt P11712); assay: Inhibition of CYP2C9 in human liver microsomes at 10 uM using sulfaphenazole as […] preincubated for 5 mins followed by NADPH addition measured after 20 mins by LC-MS/MS analysis; format: ADME
[26] = target: Tyrosine-protein kinase receptor UFO (Homo sapiens, UniProt P30530); assay: Inhibition of human AXL
[27] = target: Insulin-like growth factor 1 receptor (Homo sapiens, UniProt P08069); assay: Inhibition of human IGF1R
[28] = target: ALK tyrosine kinase receptor (Homo sapiens, UniProt Q9UM73); assay: Inhibition of human ALK
[29] = target: Proto-oncogene tyrosine-protein kinase Src (Homo sapiens, UniProt P12931); assay: Inhibition of human c- SRC

Mast/stem cell growth factor receptor Kit, sequence (P10721 whole entry): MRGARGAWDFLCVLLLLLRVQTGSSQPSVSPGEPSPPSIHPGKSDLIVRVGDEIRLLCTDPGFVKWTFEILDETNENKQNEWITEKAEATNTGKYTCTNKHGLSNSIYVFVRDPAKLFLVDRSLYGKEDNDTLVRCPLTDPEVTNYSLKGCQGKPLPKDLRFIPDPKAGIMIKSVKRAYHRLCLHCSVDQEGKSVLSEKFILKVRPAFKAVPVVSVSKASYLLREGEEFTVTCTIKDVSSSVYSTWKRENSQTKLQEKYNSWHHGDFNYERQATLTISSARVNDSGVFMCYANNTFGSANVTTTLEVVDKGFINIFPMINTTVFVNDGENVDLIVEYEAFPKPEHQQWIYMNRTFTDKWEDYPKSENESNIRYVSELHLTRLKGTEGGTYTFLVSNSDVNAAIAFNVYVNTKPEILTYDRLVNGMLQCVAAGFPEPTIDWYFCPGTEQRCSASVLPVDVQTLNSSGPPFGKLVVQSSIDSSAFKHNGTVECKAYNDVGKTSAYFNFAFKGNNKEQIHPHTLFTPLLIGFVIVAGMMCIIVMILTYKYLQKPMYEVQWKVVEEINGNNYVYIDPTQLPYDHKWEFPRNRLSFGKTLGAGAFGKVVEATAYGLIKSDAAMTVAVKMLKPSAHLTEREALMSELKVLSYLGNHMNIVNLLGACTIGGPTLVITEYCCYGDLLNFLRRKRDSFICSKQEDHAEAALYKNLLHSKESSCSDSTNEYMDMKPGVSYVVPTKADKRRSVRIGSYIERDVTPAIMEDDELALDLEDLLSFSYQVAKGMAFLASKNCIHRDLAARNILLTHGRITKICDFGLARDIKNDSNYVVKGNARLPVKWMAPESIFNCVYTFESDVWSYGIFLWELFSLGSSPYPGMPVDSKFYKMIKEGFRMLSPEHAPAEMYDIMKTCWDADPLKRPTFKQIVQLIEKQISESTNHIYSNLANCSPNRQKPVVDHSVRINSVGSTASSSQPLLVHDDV
Tyrosine-protein kinase ABL1, sequence (P00519 whole entry): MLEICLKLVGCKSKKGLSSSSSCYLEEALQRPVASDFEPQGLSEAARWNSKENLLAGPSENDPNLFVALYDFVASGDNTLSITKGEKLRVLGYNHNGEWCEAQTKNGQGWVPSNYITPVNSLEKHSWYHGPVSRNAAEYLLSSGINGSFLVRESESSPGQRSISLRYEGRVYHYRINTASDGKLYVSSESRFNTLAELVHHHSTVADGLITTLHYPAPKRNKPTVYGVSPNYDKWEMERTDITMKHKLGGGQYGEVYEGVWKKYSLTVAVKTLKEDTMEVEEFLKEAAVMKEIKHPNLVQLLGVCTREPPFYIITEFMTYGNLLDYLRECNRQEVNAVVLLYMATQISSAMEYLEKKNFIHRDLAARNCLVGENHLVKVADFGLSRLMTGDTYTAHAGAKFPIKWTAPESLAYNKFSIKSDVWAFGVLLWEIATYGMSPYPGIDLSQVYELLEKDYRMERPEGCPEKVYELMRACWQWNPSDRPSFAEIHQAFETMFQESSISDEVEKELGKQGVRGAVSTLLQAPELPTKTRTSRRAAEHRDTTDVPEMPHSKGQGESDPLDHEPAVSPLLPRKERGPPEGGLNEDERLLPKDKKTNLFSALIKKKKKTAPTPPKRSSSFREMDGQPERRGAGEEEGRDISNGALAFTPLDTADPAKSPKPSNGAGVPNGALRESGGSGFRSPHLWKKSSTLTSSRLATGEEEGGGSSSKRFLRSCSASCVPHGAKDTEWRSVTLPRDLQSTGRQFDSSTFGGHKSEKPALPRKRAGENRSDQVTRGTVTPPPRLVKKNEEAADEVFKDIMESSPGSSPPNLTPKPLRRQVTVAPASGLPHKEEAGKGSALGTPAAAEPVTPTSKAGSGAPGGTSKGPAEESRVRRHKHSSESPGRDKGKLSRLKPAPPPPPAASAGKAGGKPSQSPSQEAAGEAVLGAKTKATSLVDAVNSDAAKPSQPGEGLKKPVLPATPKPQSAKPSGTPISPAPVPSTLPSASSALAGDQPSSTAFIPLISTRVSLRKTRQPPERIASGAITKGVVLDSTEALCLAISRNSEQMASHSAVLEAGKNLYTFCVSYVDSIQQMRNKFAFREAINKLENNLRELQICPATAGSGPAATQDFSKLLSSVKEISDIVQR
Receptor tyrosine-protein kinase erbB-4, sequence (Q15303 whole entry): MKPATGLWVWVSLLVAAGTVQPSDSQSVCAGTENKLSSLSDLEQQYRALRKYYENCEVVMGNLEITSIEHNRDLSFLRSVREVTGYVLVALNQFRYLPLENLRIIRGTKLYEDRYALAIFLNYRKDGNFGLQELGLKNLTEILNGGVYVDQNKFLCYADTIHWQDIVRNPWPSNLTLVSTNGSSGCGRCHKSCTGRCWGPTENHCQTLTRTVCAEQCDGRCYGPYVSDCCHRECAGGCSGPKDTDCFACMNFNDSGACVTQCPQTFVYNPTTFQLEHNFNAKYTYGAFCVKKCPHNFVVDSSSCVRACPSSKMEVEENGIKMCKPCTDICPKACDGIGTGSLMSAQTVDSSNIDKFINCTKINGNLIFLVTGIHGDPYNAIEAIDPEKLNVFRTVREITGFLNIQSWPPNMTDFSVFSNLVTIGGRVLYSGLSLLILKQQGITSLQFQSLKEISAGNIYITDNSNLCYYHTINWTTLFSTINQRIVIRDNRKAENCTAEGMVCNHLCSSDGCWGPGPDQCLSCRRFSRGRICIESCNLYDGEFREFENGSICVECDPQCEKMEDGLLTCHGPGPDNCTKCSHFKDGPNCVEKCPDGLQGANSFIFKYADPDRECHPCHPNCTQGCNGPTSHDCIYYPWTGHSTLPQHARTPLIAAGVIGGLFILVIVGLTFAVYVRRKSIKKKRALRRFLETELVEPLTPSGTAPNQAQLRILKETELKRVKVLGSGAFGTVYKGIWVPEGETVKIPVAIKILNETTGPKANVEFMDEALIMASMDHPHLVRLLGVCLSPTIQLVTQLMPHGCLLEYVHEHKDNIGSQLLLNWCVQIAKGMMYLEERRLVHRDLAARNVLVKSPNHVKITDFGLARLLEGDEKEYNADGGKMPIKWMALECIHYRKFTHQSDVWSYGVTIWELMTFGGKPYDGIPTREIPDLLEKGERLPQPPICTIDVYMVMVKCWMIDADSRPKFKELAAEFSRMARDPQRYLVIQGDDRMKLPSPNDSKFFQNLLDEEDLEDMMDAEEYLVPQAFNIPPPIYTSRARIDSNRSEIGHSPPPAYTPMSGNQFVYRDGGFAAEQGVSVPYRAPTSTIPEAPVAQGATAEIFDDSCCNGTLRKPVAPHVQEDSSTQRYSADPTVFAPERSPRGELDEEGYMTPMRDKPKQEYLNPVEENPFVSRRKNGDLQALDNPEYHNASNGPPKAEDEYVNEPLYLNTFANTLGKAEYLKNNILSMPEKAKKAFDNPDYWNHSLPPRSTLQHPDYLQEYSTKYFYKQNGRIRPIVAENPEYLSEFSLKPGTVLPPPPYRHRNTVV
ALK tyrosine kinase receptor, sequence (Q9UM73 whole entry): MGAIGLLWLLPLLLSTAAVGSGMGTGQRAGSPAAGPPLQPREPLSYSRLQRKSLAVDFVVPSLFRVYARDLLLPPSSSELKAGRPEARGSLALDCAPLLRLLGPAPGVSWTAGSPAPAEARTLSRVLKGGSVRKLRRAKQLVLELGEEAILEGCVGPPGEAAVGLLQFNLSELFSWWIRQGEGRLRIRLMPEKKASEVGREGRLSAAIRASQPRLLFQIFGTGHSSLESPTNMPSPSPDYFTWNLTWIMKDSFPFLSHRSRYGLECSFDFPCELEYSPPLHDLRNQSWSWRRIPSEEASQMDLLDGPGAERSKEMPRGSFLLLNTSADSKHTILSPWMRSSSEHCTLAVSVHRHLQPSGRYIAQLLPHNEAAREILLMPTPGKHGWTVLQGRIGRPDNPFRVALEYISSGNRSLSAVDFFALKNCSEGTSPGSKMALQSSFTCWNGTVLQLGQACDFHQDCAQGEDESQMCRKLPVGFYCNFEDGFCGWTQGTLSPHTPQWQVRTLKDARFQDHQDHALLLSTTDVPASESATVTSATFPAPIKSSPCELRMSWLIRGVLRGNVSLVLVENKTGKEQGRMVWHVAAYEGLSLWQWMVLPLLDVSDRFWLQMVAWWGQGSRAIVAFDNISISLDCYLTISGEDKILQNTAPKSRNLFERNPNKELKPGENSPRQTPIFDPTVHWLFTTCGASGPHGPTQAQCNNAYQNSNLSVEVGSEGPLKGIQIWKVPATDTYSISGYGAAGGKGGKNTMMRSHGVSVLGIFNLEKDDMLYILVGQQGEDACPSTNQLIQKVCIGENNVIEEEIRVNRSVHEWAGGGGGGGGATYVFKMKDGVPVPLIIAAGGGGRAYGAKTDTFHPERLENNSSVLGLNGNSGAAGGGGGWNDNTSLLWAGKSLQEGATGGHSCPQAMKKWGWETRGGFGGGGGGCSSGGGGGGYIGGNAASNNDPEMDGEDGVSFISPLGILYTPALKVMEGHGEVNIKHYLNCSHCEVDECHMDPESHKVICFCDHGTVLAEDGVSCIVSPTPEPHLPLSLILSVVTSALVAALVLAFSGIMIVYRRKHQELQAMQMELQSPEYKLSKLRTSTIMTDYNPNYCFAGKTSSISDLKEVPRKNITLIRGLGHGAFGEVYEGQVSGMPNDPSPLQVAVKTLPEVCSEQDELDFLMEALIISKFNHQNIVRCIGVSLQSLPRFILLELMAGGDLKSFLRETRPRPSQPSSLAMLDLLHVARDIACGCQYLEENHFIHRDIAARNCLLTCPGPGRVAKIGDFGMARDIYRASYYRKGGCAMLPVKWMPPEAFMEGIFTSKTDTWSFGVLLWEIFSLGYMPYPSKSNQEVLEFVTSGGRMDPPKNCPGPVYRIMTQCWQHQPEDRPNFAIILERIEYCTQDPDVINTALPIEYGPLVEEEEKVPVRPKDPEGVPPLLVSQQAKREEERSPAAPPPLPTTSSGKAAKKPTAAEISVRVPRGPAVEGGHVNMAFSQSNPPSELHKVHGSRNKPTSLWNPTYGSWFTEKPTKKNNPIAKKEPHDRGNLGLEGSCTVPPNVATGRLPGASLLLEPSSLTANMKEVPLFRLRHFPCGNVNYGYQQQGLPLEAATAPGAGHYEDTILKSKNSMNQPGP

With C[C@@H](c1cc2cccnc2cc1F)n1cnc2ncc(-c3cnn(C)c3)nc21 the IC50 [1] was 0.0247 µM, the IC50 [2] was 27.6 µM and the IC50 [3] was greater than 30 µM. The efflux ratio at 1.5 h [4] was 1.04, the IC50 [5] was 0.00145 µM and the microsomal CLint at 1 µM [6] was 49 µL/min/mg. For the same compound, the IC50 [7] was 20.6 µM, the IC50 [8] was greater than 30 µM and the IC50 [9] was 26.2 µM. The Papp B→A at 1.5 h [10] was 48.6 ×10⁻⁶ cm/s, the IC50 [11] was greater than 30 µM and the IC50 [12] was greater than 30 µM. For the same compound, the microsomal CLint at 1 µM [13] was 8 µL/min/mg, the “inhibition (INH)” value [14] was “Not Active” and the Papp A→B at 1.5 h, 10 µM [15] was 46.6 ×10⁻⁶ cm/s. The “inhibition (INH)” value [16] was “Not Active”, the IC50 [17] was greater than 30 µM and the IC50 [18] was greater than 30 µM. For the same compound, the IC50 [19] was greater than 30 µM, the IC50 [20] was greater than 30 µM and the IC50 [21] was greater than 30 µM. For the same compound, the IC50 [22] was greater than 30 µM, the IC50 [23] was greater than 30 µM and the “inhibition (INH)” value [24] was “Not Active”. The “inhibition (INH)” value [25] was “Active”, the IC50 [26] was greater than 30 µM and the IC50 [27] was greater than 30 µM. The IC50 [28] was greater than 30 µM and the IC50 [29] was greater than 30 µM.

Reference: ChEMBL document CHEMBL4477239 (Bioorg Med Chem, 2016)
